PubChem BioAssay (NCI)
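Tested at 5 concentrations; 48 h exposure; 96-well plates; endpoints linearly interpolated, else capped at highest concentration. TGI marks complete inhibition of growth.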

Key:
Assay in all cases: NCI tumour cell line growth inhibition, 48 h
[1] = system: HOP-92 NSCLC
[2] = system: LOX IMVI melanoma
[3] = system: XF 498 CNS
[4] = system: SK-MEL-2 melanoma
[5] = system: SK-MEL-5 melanoma
[6] = system: OVCAR-5 ovarian
[7] = system: SNB-78 CNS
[8] = system: NCI-H226 lung
[9] = system: EKVX NSCLC
[10] = system: SK-OV-3 ovarian
[11] = system: A549 NSCLC
[12] = system: UACC-62 melanoma
[13] = system: SNB-75 CNS
[14] = system: M14 melanoma
[15] = system: CCRF-CEM leukemia
[16] = system: M19-MEL melanoma
[17] = system: UO-31 renal
[18] = system: SW-620 colon
[19] = system: HCC-2998 colon
[20] = system: MALME-3M melanoma
[21] = system: HL-60(TB) leukemia
[22] = system: UACC-257 melanoma
[23] = system: OVCAR-8 ovarian
[24] = system: DMS 273 small cell lung
[25] = system: LXFL 529 NSCLC
[26] = system: DLD-1 colon
[27] = system: HT29 colon
[28] = system: NCI-H460 lung
[29] = system: COLO 205 colon
[30] = system: ACHN renal
[31] = system: SF-295 CNS
[32] = system: MOLT-4 leukemia
[33] = system: IGROV1 ovarian
[34] = system: TK-10 renal
[35] = system: HCT-15 colon
[36] = system: A498 renal
[37] = system: DMS 114 small cell lung
[38] = system: NCI-H23 lung
[39] = system: SF-268 CNS
[40] = system: OVCAR-3 ovarian
[41] = system: OVCAR-4 ovarian
[42] = system: HOP-62 NSCLC
[43] = system: KM12 colon
[44] = system: CAKI-1 renal
[45] = system: HOP-18 NSCLC
[46] = system: 786-0 renal
[47] = system: SF-539 CNS
[48] = system: RPMI-8226 leukemia
[49] = system: KM20L2 colon
[50] = system: SN12C renal
[51] = system: K-562 leukemia
[52] = system: U251 CNS
[53] = system: SK-MEL-28 melanoma
[54] = system: RXF 393 renal
[55] = system: SNB-19 CNS
[56] = system: NCI-H522 lung
[57] = system: SR leukemia
[58] = system: RXF-631 renal
[59] = system: HCT-116 colon

Measured: TGI

CC(=O)O[C@H]1CCN2C(=O)C=CC(OCc3ccccc3)C12 (some centres undefined)
not listed: [54] | [55] | [56] | [57] | [58] | [59]
> 100 µM: all other assays above

C[C@@H](NS(=O)(=O)c1ccc(NC(=O)c2ccccc2)cc1)C(=O)O
not listed: [7] | [8] | [37] | [42] | [57] | [58] | [59]
> 100 µM: all other assays above

COc1ccc(C2ON(c3ccccc3)CC=C2C)cc1 (centres undefined)
99.5 µM: [56]
78.3 µM: [4]
not listed: [1] | [5] | [36] | [37] | [45]
> 100 µM: all other assays above
